The values that follow come from patent US20220281848A1, “PYRAZOLE-SUBSTITUTED PYRROLIDINONES AS HERBICIDES” (FMC Corporation, priority 2019, published 2022).

What all share (assay type): in vivo
For assay [1], the system named is giant foxtail (Setaria faberi, SETFA). Briefly: Test A pre-emergence, giant foxtail. The conditions noted are these: after 13 d. A digest of the protocol: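 Damage rated 0–100 (100 = total) 13 d after spraying. Application was one day post-sowing at 15.625, 62.5 or 250 g/ha, formulated in 50:50 acetone/water plus 0.5% Tween 20. Pots held in glasshouse at 24/16 °C day/night, 14 h light, 65% humidity, watered twice daily.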

Another assay deals with corn (Zea mays, ZEAMX). Kind of assay: Test A post-emergence, corn. The conditions noted are these: after 13 d. A digest of the protocol: (§1)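 Foliar application to 8-day-old seedlings at 15.625, 62.5 or 250 g/ha; phytotoxicity scored 0–100 after 13 d.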
Assay [2] has as its system giant foxtail (Setaria faberi, SETFA). Kind of assay: Test A post-emergence, giant foxtail. The conditions noted are these: after 13 d. In a few lines:
as §1

Assay [3] deals with redroot pigweed (Amaranthus retroflexus, AMARE). Briefly: Test A post-emergence, redroot pigweed. The conditions noted are these: after 13 d. In a few lines: as §1
Assay [4] relates to velvetleaf (Abutilon theophrasti, ABUTH). Kind of assay: Test A post-emergence, velvetleaf. The conditions noted are these: after 13 d. In a few lines:
as §1

In the next assay the test system is maize. Briefly: Test D pre-emergence, maize seed treated with a herbicide safener. The conditions noted are these: preemergent; for damage to plant (100=total damage to plant; 0=no damage to plant), ZEAMX: 20 DAA; for ZEAMX damage to plant (100=total damage; 0=no damage): safener-treated seed. The method, then:
A formulation containing 50 g/L of the test chemical was prepared by dissolving the active ingredient in a mixture of organic solvents and emulsifier, details of which are provided in the table. This formulation was then mixed with a small, variable amount of acetone to aid dissolution, before addition of a 0.2% v/v aqueous solution of an adjuvant, as the aqueous diluent, to form an aqueous spray solution which contains a predetermined concentration of the active ingredient.
This aqueous spray solution was then sprayed onto plants including maize and wheat that had been seed treated with a herbicide safener, after one day's cultivation (for pre-emergence) or after about 12 days' cultivation (for post-emergence). The plants were grown from seeds sown in standard soil, placed in a glasshouse under controlled conditions (at 24/18° C. or 20/16° C., day/night; 16 h light; 65% humidity). After spray application the plants were then grown in a glasshouse under the same conditions and watered twice daily. After 15 d for post-emergence and 20 DAA for pre-emergence the test was evaluated (100=total damage to plant; 0=no damage to plant).

In the case of `CCn1nc([C@H]2CN(C)C(=O)[C@@H]2C(=O)Nc2cccc(F)c2F)c2c(F)cccc21` [Compound 7], the “damage to plant (100=total damage; 0=no damage) SETFA” value in assay [1] (Pre-Emergence at 15.625 g/ha) is 70; in assay [1] (Pre-Emergence at 62.5 g/ha), 80; in assay [1] (Pre-Emergence at 250 g/ha) it was 90; in assay [2] (Post-Emergence at 15.625 g/ha), 60; in assay [2] (Post-Emergence at 62.5 g/ha) it was 70; in assay [2] (Post-Emergence at 250 g/ha) it was 80. The “damage to plant (100=total damage; 0=no damage) ZEAMX” value in the assay on corn (Zea mays, ZEAMX) (Post-Emergence at 15.625 g/ha) is 20; in the assay on corn (Zea mays, ZEAMX) (Post-Emergence at 62.5 g/ha), 40; with corn (Zea mays, ZEAMX) (Post-Emergence at 250 g/ha), 80. Besides, the “damage to plant (100=total damage; 0=no damage) AMARE” value in assay [3] (Post-Emergence at 15.625 g/ha), in assay [3] (Post-Emergence at 62.5 g/ha) and in assay [3] (Post-Emergence at 250 g/ha) was 0 in each case. Moreover, the “damage to plant (100=total damage; 0=no damage) ABUTH” value in assay [4] (Post-Emergence at 15.625 g/ha), in assay [4] (Post-Emergence at 62.5 g/ha) and in assay [4] (Post-Emergence at 250 g/ha) was 0 throughout. The “damage to plant (100=total damage to plant; 0=no damage to plant), ZEAMX” value is on record as 0 in the assay on maize (rate 15); 0 in the assay on maize (rate 30); 0 with maize (rate 60); 0 in the assay on maize (rate 130); 0 in the assay on maize (rate 250); 10 with maize (rate 500).
Take `CCn1nc([C@H]2CN(C)C(=O)[C@@H]2C(=O)Nc2cccc(F)c2F)c2ccc(F)cc21` [Compound 4]: the “damage to plant (100=total damage; 0=no damage) SETFA” value in assay [1] (Pre-Emergence at 15.625 g/ha) turned out to be 80; in assay [1] (Pre-Emergence at 62.5 g/ha) it was 90; in assay [1] (Pre-Emergence at 250 g/ha), 90; in assay [2] (Post-Emergence at 15.625 g/ha), 90; in assay [2] (Post-Emergence at 62.5 g/ha) it was 90; in assay [2] (Post-Emergence at 250 g/ha), 90. Further, the “damage to plant (100=total damage; 0=no damage) ZEAMX” value is given as 20 in the assay with corn (Zea mays, ZEAMX) (Post-Emergence at 15.625 g/ha); 50 in the assay with corn (Zea mays, ZEAMX) (Post-Emergence at 62.5 g/ha); 90 in the assay on corn (Zea mays, ZEAMX) (Post-Emergence at 250 g/ha). For the same compound, the “damage to plant (100=total damage; 0=no damage) AMARE” value in assay [3] (Post-Emergence at 15.625 g/ha) stood at 0; in assay [3] (Post-Emergence at 62.5 g/ha) it was 20; in assay [3] (Post-Emergence at 250 g/ha), 20. Also, the “damage to plant (100=total damage; 0=no damage) ABUTH” value in assay [4] (Post-Emergence at 15.625 g/ha) is recorded as 0; in assay [4] (Post-Emergence at 62.5 g/ha), 0; in assay [4] (Post-Emergence at 250 g/ha), 20. Also, the “damage to plant (100=total damage to plant; 0=no damage to plant), ZEAMX” value was determined as 0 with maize (rate 15); 0 in the assay with maize (rate 30); 0 with maize (rate 60); 0 in the assay on maize (rate 130); 0 with maize (rate 250); 10 with maize (rate 500).
As for `CN1CC(c2cc(C(F)(F)F)n(C)n2)C(C(=O)Nc2ccc(F)cc2C(C)(F)F)C1=O` (racemic) [Compound 26], the “damage to plant (100=total damage; 0=no damage) SETFA” value in assay [1] (Pre-Emergence at 62.5 g/ha) is 90; in assay [1] (Pre-Emergence at 250 g/ha), 90; in assay [2] (Post-Emergence at 62.5 g/ha), 80; in assay [2] (Post-Emergence at 250 g/ha), 90. Further, the “damage to plant (100=total damage; 0=no damage) ZEAMX” value with corn (Zea mays, ZEAMX) (Post-Emergence at 62.5 g/ha) worked out at 60; in the assay with corn (Zea mays, ZEAMX) (Post-Emergence at 250 g/ha), 80. The “damage to plant (100=total damage; 0=no damage) AMARE” value in assay [3] (Post-Emergence at 62.5 g/ha) and in assay [3] (Post-Emergence at 250 g/ha) was 0 throughout. Moreover, the “damage to plant (100=total damage; 0=no damage) ABUTH” value in assay [4] (Post-Emergence at 62.5 g/ha) and in assay [4] (Post-Emergence at 250 g/ha) was 0 each time. The “damage to plant (100=total damage to plant; 0=no damage to plant), ZEAMX” value with maize (rate 15), in the assay with maize (rate 30), in the assay on maize (rate 60), in the assay on maize (rate 130), in the assay on maize (rate 250) and with maize (rate 500) was 0 throughout.
As for `CN1CC(c2cc(C(F)(F)F)n(C)n2)C(C(=O)Nc2ccc(F)nc2F)C1=O` (racemic) [Compound 22], the “damage to plant (100=total damage; 0=no damage) SETFA” value is listed as 80 in assay [1] (Pre-Emergence at 15.625 g/ha); 90 in assay [1] (Pre-Emergence at 62.5 g/ha); 90 in assay [1] (Pre-Emergence at 250 g/ha); 50 in assay [2] (Post-Emergence at 15.625 g/ha); 70 in assay [2] (Post-Emergence at 62.5 g/ha); 80 in assay [2] (Post-Emergence at 250 g/ha). Also, the “damage to plant (100=total damage; 0=no damage) ZEAMX” value in the assay on corn (Zea mays, ZEAMX) (Post-Emergence at 15.625 g/ha) was 20; in the assay on corn (Zea mays, ZEAMX) (Post-Emergence at 62.5 g/ha), 40; in the assay on corn (Zea mays, ZEAMX) (Post-Emergence at 250 g/ha), 80. For the same compound, the “damage to plant (100=total damage; 0=no damage) AMARE” value in assay [3] (Post-Emergence at 15.625 g/ha), in assay [3] (Post-Emergence at 62.5 g/ha) and in assay [3] (Post-Emergence at 250 g/ha) was 0 each time. Besides, the “damage to plant (100=total damage; 0=no damage) ABUTH” value in assay [4] (Post-Emergence at 15.625 g/ha), in assay [4] (Post-Emergence at 62.5 g/ha) and in assay [4] (Post-Emergence at 250 g/ha) was 0 throughout. The “damage to plant (100=total damage to plant; 0=no damage to plant), ZEAMX” value with maize (rate 15), with maize (rate 30), with maize (rate 60), with maize (rate 130), in the assay on maize (rate 250) and in the assay with maize (rate 500) was 0 throughout.
As to `CN1CC(c2cc(Cl)n(C)n2)C(C(=O)Nc2ccc(F)c(F)c2F)C1=O` (racemic) [Compound 31], the “damage to plant (100=total damage; 0=no damage) SETFA” value in assay [1] (Pre-Emergence at 15.625 g/ha) was determined as 40; in assay [1] (Pre-Emergence at 62.5 g/ha), 80; in assay [1] (Pre-Emergence at 250 g/ha) it was 80; in assay [2] (Post-Emergence at 15.625 g/ha), 40; in assay [2] (Post-Emergence at 62.5 g/ha), 80; in assay [2] (Post-Emergence at 250 g/ha), 80. Besides, the “damage to plant (100=total damage; 0=no damage) ZEAMX” value in the assay with corn (Zea mays, ZEAMX) (Post-Emergence at 15.625 g/ha) is reported as 0; in the assay with corn (Zea mays, ZEAMX) (Post-Emergence at 62.5 g/ha), 0; in the assay on corn (Zea mays, ZEAMX) (Post-Emergence at 250 g/ha), 0. In addition, the “damage to plant (100=total damage; 0=no damage) AMARE” value in assay [3] (Post-Emergence at 15.625 g/ha) was found to be 0; in assay [3] (Post-Emergence at 62.5 g/ha), 10; in assay [3] (Post-Emergence at 250 g/ha), 20. Further, the “damage to plant (100=total damage; 0=no damage) ABUTH” value in assay [4] (Post-Emergence at 15.625 g/ha), in assay [4] (Post-Emergence at 62.5 g/ha) and in assay [4] (Post-Emergence at 250 g/ha) was 0 throughout. Also, the “ZEAMX damage to plant (100=total damage; 0=no damage)” value with maize (Rates 15, 20 DAA) worked out at 0; with maize (Rates 30, 20 DAA), 0; in the assay on maize (Rates 60, 20 DAA), 0; with maize (Rates 130, 20 DAA), 0; in the assay on maize (Rates 250, 20 DAA), 0; in the assay with maize (Rates 500, 20 DAA) it was 0.
